Experimental data reported in patent US11453697B1, “Cyclic di-nucleotide compounds as sting agonists” (Merck Sharp & Dohme Corp., priority 2015, dated 2022).
Where two headings read alike, the source gives them in different places.

Tests used:
[1] = system: IFN-β secretion in THP1 cells; assay: IFN-β secretion in THP1 cell culture (5 h); format: cell-based, human
How it was run: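 THP1 cells incubated with compound for 5 h at 37 °C, 5% CO2, and secreted IFN-β in supernatant quantified by AlphaLISA. Percent effect normalised to 30 uM cGAMP positive control and 0.3% DMSO. EC50 from 4-parameter fit.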

full-length HAQ STING = full-length HAQ STING (Homo sapiens (Human), UniProt Q86WV6, G230A/H232R/R293Q/R71H); assay: 3H-cGAMP filtration binding assay (HAQ STING); details: competition with tritiated cGAMP, HAQ STING membrane; read-out: EC50 (nM), 3H-cGAMP filtration binding assay for HAQ STING
Sequence of full-length HAQ STING (Q86WV6 other isoform, or with tags, fused parts or gaps, stated change not applied): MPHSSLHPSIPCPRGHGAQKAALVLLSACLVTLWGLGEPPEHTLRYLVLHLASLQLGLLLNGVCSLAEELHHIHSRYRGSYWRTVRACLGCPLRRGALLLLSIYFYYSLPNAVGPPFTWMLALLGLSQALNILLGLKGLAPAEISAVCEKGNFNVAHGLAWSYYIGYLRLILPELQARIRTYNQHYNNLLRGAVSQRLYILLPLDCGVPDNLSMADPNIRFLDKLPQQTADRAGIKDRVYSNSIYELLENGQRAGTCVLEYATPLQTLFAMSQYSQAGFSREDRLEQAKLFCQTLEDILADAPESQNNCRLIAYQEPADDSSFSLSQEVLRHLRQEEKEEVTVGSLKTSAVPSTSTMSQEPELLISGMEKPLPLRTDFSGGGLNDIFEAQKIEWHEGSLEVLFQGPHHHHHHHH
How it was run: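 Competition binding of compounds against 8 nM [3H]cGAMP working stock on Hi-Five cell membranes overexpressing full-length HAQ STING; compound and membrane preincubated 60 min at RT before ligand addition. Bound radioactivity read by filtration and scintillation counting; percent activity normalized to controls, EC50 from 4-parameter fit.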

[2] = IFN-β secretion in THP1 cell culture, 5 h, compound at 30 μM, percent activation relative to 2′3′-cGAMP

In the case of `Nc1ncnc2c1ncn2[C@@H]1O[C@@H]2COP(=O)(O)O[C@H]3[C@@H](F)[C@H](n4cnc5c(=O)[nH]cnc54)O[C@@H]3COP(=O)(O)O[C@@H]1[C@@H]2O` [Example 292, 9-[(5R,7R,8R,12aR,14R,15R,15aR,16R)-7-(6-amino-9H-purin-9-yl)-15-fluoro-2,10,16-trihydroxy-2,10-dioxidooctahydro-12H-5,8-methanofuro[3,2-l][1,3,6,9,11,2,10]pentaoxadiphosphacyclotetradecin-14-yl]-1,9-dihydro-6H-purin-6-one], the “% Effect at 30 μM relative to 2′3′-cGAMP” value [1, 2] is reported as 114% and the EC50 (full-length HAQ STING) is reported as 2.6 nM.

In the case of `Nc1nc2c(ncn2[C@@H]2O[C@@H]3COP(=O)(O)O[C@H]4[C@@H](F)[C@H](n5cnc6c(=O)[nH]cnc65)O[C@@H]4COP(=O)(O)O[C@@H]2[C@@H]3O)c(=O)[nH]1` [Example 293, 2-amino-9-[(5R,7R,8R,12aR,14R,15R,15aR,16R)-15-fluoro-2,10,16-trihydroxy-2,10-dioxido-14-(6-oxo-1,6-dihydro-9H-purin-9-yl)octahydro-12H-5,8-methanofuro[3,2-l] [1,3,6,9,11,2,10]pentaoxadiphosphacyclo-tetradecin-7-yl]-1,9-dihydro-6H-purin-6-one], the “% Effect at 30 μM relative to 2′3′-cGAMP” value [1, 2] is reported as 86% and the EC50 (full-length HAQ STING) is reported as 1.9 nM.

For `Nc1nc2c(ncn2[C@@H]2O[C@@H]3COP(=O)(O)O[C@H]4[C@@H](F)[C@H](n5cnc6c(=O)[nH]cnc65)O[C@@H]4COP(=O)(O)O[C@@H]2C3)c(=O)[nH]1` [Example 294, 2-amino-9-[(5S,7R,8R,12aR,14R,15R,15aR)-15-fluoro-2,10-dihydroxy-2,10-dioxido-14-(6-oxo-1,6-dihydro-9H-purin-9-yl)octahydro-12H-5,8-methanofuro[3,2-l] [1,3,6,9,11,2,10]pentaoxadiphosphacyclo-tetradecin-7-yl]-1,9-dihydro-6H-purin-6-one], the “% Effect at 30 μM relative to 2′3′-cGAMP” value [1, 2] was 84% and the EC50 (full-length HAQ STING) was 6.6 nM.

`Nc1nc2c(ncn2[C@@H]2O[C@@H]3COP(=O)(O)O[C@H]4[C@H](F)[C@H](n5cnc6c(=O)[nH]cnc65)O[C@@H]4COP(=O)(O)O[C@@H]2[C@@H]3O)c(=O)[nH]1` [Example 295, 2-amino-9-[(5R,7R,8R,12aR,14R,15S,15aR,16R)-15-fluoro-2,10,16-trihydroxy-2,10-dioxido-14-(6-oxo-1,6-dihydro-9H-purin-9-yl)octahydro-12H-5,8-methanofuro[3,2-l] [1,3,6,9,11,2,10]pentaoxadiphosphacyclo-tetradecin-7-yl]-1,9-dihydro-6H-purin-6-one] was tested, and the “% Effect at 30 μM relative to 2′3′-cGAMP” value [1, 2] was 70% and the EC50 (full-length HAQ STING) was 29.6 nM.

For `Nc1nc2c(ncn2[C@@H]2O[C@@H]3COP(=O)(O)O[C@H]4[C@@H](O)[C@H](n5cnc6c(O)ncnc65)O[C@@H]4COP(=O)(O)O[C@@H]2[C@@H]3F)c(=O)[nH]1` [Example 300, 2-amino-9-[(5R,7R,8S,12aR,14R,15R,15aS,16R)-16-fluoro-2,10,15-trihydroxy-14-(6-hydroxy-9H-purin-9-yl)-2,10-dioxidooctahydro-12H-5,8-methanofuro[3,2-l] [1,3,6,9,11,2,10]pentaoxadiphosphacyclo-tetradecin-7-yl]-1,9-dihydro-6H-purin-6-one], the “% Effect at 30 μM relative to 2′3′-cGAMP” value [1, 2] was 86% and the EC50 (full-length HAQ STING) was 5.1 nM.

With `CO[C@H]1[C@H]2OP(=O)(O)OC[C@H]3O[C@@H](n4cnc5c(O)ncnc54)[C@H](O)[C@@H]3OP(=O)(O)OC[C@H]1O[C@H]2n1cnc2c(=O)[nH]c(N)nc21` [Example 301, 2-amino-9-[(5R,7R,8R,12aR,14R,15R,15aS,16R)-2,10,15-trihydroxy-14-(6-hydroxy-9H-purin-9-yl)-16-methoxy-2,10-dioxidooctahydro-12H-5,8-methanofuro[3,2-l][1,3,6,9,11,2,10]pentaoxadiphosphacyclotetradecin-7-yl]-1,9-dihydro-6H-purin-6-one] the “% Effect at 30 μM relative to 2′3′-cGAMP” value [1, 2] was 107% and the EC50 (full-length HAQ STING) was 4.8 nM.

With `[N-]=[N+]=N[C@H]1[C@H]2OP(=O)(O)OC[C@H]3O[C@@H](n4cnc5c(O)ncnc54)[C@H](O)[C@@H]3OP(=O)(O)OC[C@H]1O[C@H]2n1cnc2c(=O)[nH]c(N)nc21` [Example 302, 2-amino-9-[(5S,7R,8R,12aR,14R,15R,15aS,16R)-16-azido-2,10,15-trihydroxy-14-(6-hydroxy-9H-purin-9-yl)-2,10-dioxidooctahydro-12H-5,8-methanofuro[3,2-l] [1,3,6,9,11,2,10]pentaoxadiphosphacyclo-tetradecin-7-yl]-1,9-dihydro-6H-purin-6-one] the “% Effect at 30 μM relative to 2′3′-cGAMP” value [1, 2] was 103% and the EC50 (full-length HAQ STING) was 2.3 nM.

For `Nc1nc2c(ncn2[C@@H]2O[C@@H]3COP(O)(=S)O[C@H]4[C@H](F)[C@H](n5cnc6c(=O)[nH]cnc65)O[C@@H]4COP(=O)(O)O[C@@H]2[C@@H]3F)c(=O)[nH]1` (stereo partly drawn) [Example 303, 2-amino-9-[(5R,7R,8S,12aR,14R,15S,15aR,16R)-15,16-difluoro-2,10-dihydroxy-10-oxido-14-(6-oxo-1,6-dihydro-9H-purin-9-yl)-2-sulfidooctahydro-12H-5,8-methanofuro[3,2-l][1,3,6,9,11,2,10]pentaoxadiphosphacyclotetradecin-7-yl]-1,9-dihydro-6H-purin-6-one], the “% Effect at 30 μM relative to 2′3′-cGAMP” value [1] was 106% and the EC50 (full-length HAQ STING) was < 1 nM.

For `Nc1nc2c(ncn2[C@@H]2O[C@@H]3COP(=O)(O)O[C@H]4[C@H](F)[C@H](n5cnc6c(=O)[nH]cnc65)O[C@@H]4COP(=O)(O)O[C@@H]2C3)c(=O)[nH]1` [Example 312, 2-amino-9-[(5S,7R,8R,12aR,14R,15S,15aR)-15-fluoro-2,10-dihydroxy-2,10-dioxido-14-(6-oxo-1,6-dihydro-9H-purin-9-yl)octahydro-12H-5,8-methanofuro[3,2-l] [1,3,6,9,11,2,10]pentaoxadiphosphacyclo-tetradecin-7-yl]-1,9-dihydro-6H-purin-6-one], the “% Effect at 30 μM relative to 2′3′-cGAMP” value [1, 2] was 90% and the EC50 (full-length HAQ STING) was 122 nM.

In the case of `Nc1nc2c(ncn2[C@@H]2O[C@@H]3COP(=O)(O)O[C@H]4C[C@H](n5cnc6c(=O)[nH]cnc65)O[C@@H]4COP(=O)(O)O[C@@H]2C3)c(=O)[nH]1` [Example 313, 2-amino-9-[(5S,7R,8R,12aR,14R,15aS)-2,10-dihydroxy-2,10-dioxido-14-(6-oxo-1,6-dihydro-9H-purin-9-yl)octahydro-12H-5,8-methanofuro[3,2-l] [1,3,6,9,11,2,10]pentaoxadiphosphacyclo-tetradecin-7-yl]-1,9-dihydro-6H-purin-6-one], the “% Effect at 30 μM relative to 2′3′-cGAMP” value [1, 2] is reported as 117% and the EC50 (full-length HAQ STING) is reported as 211 nM.

`Nc1nc2c(ncn2[C@@H]2O[C@@H]3COP(=O)(O)O[C@H]4[C@@H](F)[C@H](n5cnc6c(=O)[nH]cnc65)O[C@@H]4COP(=O)(O)O[C@@H]2[C@@H]3F)c(=O)[nH]1` [Example 314, 2-amino-9-[(5R,7R,8S,12aR,14R,15R,15aR,16R)-15,16-difluoro-2,10-dihydroxy-2,10-dioxido-14-(6-oxo-1,6-dihydro-9H-purin-9-yl)octahydro-12H-5,8-methanofuro [3,2-l][1,3,6,9,11,2,10]pentaoxadiphosphacyclotetradecin-7-yl]-1,9-dihydro-6H-purin-6-one] was tested, and the “% Effect at 30 μM relative to 2′3′-cGAMP” value [1, 2] was 143% and the EC50 (full-length HAQ STING) was < 1 nM.

`Nc1nc2c(ncn2[C@@H]2O[C@@H]3COP(=O)(O)O[C@H]4[C@H](F)[C@H](n5cnc6c(=O)[nH]cnc65)O[C@@H]4COP(=O)(O)O[C@@H]2[C@@H]3F)c(=O)[nH]1` [Example 315, 2-amino-9-[(5R,7R,8S,12aR,14R,15S,15aR,16R)-15,16-difluoro-2,10-dihydroxy-2,10-dioxido-14-(6-oxo-1,6-dihydro-9H-purin-9-yl)octahydro-12H-5,8-methanofuro [3,2-l][1,3,6,9,11,2,10]pentaoxadiphosphacyclotetradecin-7-yl]-1,9-dihydro-6H-purin-6-one] was tested, and the “% Effect at 30 μM relative to 2′3′-cGAMP” value [1, 2] was 92% and the EC50 (full-length HAQ STING) was 49.9 nM.

In the case of `Nc1nc2c(ncn2[C@@H]2O[C@@]34CO[C@H]3[C@H]2OP(=O)(O)OC[C@H]2O[C@@H](n3cnc5c(=O)[nH]cnc53)[C@H](O)[C@@H]2OP(=O)(O)OC4)c(=O)[nH]1` [Example 316, 2-amino-9-[(2aR,6aS,7R,8R,9aR,14R,14aS,15R)-5,7,12-trihydroxy-5,12-dioxido-8-(6-oxo-1,6-dihydro-9H-purin-9-yl)hexahydro-6aH,2a,14-(epoxymethano)furo [3,2-d]oxeto[2,3-k][1,3,7,9,2,8]tetraoxadiphosphacyclotridecin-15(2H,3H)-yl]-1,9-dihydro-6H-purin-6-one], the “% Effect at 30 μM relative to 2′3′-cGAMP” value [1, 2] is reported as 12% and the EC50 (full-length HAQ STING) is reported as 2320 nM.

`Nc1nc2c(ncn2[C@@H]2S[C@@H]3COP(=O)(O)O[C@H]4[C@@H](O)[C@H](n5cnc6c(=O)[nH]cnc65)O[C@@H]4COP(=O)(O)O[C@@H]2[C@@H]3O)c(=O)[nH]1` [Example 319, 2-amino-9-[(5R,7R,8R,12aR,14R,15R,15aS,16S)-2,10,15,16-tetrahydroxy-2,10-dioxido-14-(6-oxo-1,6-dihydro-9H-purin-9-yl)octahydro-12H-5,8-methanofuro[3,2-l][1,3,6,9,11,6,2,10]tetraoxathiadiphosphacyclotetradecin-7-yl]-1,9-dihydro-6H-purin-6-one] was tested, and the “% Effect at 30 μM relative to 2′3′-cGAMP” value [1, 2] was 143% and the EC50 (full-length HAQ STING) was 7.3 nM.

For `Nc1nc2c(ncn2[C@@H]2O[C@@H]3COP(=O)(S)O[C@H]4[C@H](F)[C@H](n5nnc6c(=O)[nH]cnc65)O[C@@H]4COP(=O)(S)O[C@@H]2C3)c(=O)[nH]1` (stereo partly drawn) [Example 320, 3-[(5S,7R,8R,12aR,14R,15S,15aR)-7-(2-amino-6-oxo-1,6-dihydro-9H-purin-9-yl)-15-fluoro-2,10-dioxido-2,10-disulfanyloctahydro-12H-5,8-methanofuro[3,2-l][1,3,6,9,11,2,10]pentaoxadiphosphacyclotetradecin-14-yl]-3,6-dihydro-7H-[1,2,3]triazolo[4,5-d]pyrimidin-7-one], the “% Effect at 30 μM relative to 2′3′-cGAMP” value [1, 2] was 115% and the EC50 (full-length HAQ STING) was 6.3 nM.
